Experimental data published in patent US10842776B2, “Hycanthone derivatives and Primaquine derivatives for use in the prevention and/or the treatment of disorders associated to gammaherpesvirus” (priority 2016, dated 2020).
Counter-ions that a name gives are not always drawn.

Legend:
[1] = test system: caspase 3/7 activity in BC-3 cells; assay: Induction of caspase 3/7 activity (apoptosis); type: cell-based, human; settings: 10 μM, 24 h
Procedure: Apoptosis induction was evaluated 24 h after the treatment started by measuring caspase 3/7 activity in treated- or untreated control BC-3 cells. […] DDTC is used as a positive inducer of caspase 3/7 activity in BC-3 cell lines (Matsuno et al., 2012, Int J Oncol 40: 1071-1078).
BC-3 cells (10000 cells/well) were incubated 24 h with a concentration of 10 μM of Primaquine diphosphate (Sigma), Hycanthone (Sigma), or Diethyldithiocarbamate (DDTC) (Sigma), and then lysed and a 3/7 Reagent (DEVD) is added. Lysed cells release caspase-3 or -7, which cleave the DEVD substrate from the aminoluciferin. Finally, the oxidation of the luciferin by luciferase produces light, which is measured by a luminometer. The amount of light produced is proportional to the amount of caspase-3 or -7 activity. […] (DDTC) (Sigma) known to induce apoptosis in BC-3 cells via the inhibition of NF-κB is used as positive control.

[2] = test system: MRC-5, primary cutaneous fibroblasts, primary keratinocytes, Hela P4; settings: human, 48 h, 10 μM
Procedure: (§1) HHV8 infected cell line (BC3), HHV8-non infected cell lines (MRC5, HeLa P4), and HHV8 non infected primary cells (human keratinocytes, human cutaneous fibroblasts, B-type lymphocytes CD19+) were grown in vitro and treated by either Primaquine diphosphate, Hycanthone, Paclitaxel or Doxorubicin hydrochloride at a concentration of 10 μM. Cell viability was evaluated by ATP quantitation 48 h after the treatment started.
(§2) The effect of Primaquine diphosphate (Sigma), Hycanthone (Sigma), Paclitaxel (Sigma), and Doxorubicin (Sigma) were evaluated on relevant primary cells and cell lines that are or not infected by HHV-8.
• BC-3: cell line established from pleural effusion from a human immunodeficiency virus (HIV) negative patient diagnosed with primary effusion lymphoma (PEL). BC-3 cell line is HHV8 infected but not infected for Epstein-Barr virus (EBV) as well as for herpes simplex virus 1 &2 (HSV-1 & HSV-2) and cytomegalovirus (CMV) (ATCC), • MRC5: Cell line derived from normal lung tissue of a […] fetus (ATCC), • Primary cutaneous fibroblasts (Lonza ref CC 25 11), • Primary keratinocytes (Lonza ref 00 192 627), • HeLa: immortal cell line established from an adult human cervical cancer HVP-18 infected (NIH Reagent program), • Primary B-type lymphocytes CD19+: primary B cells positively selected using CD19 microbeads (Miltenyi).
(§3) Cells were treated in vitro with either Primaquine diphosphate (Sigma), Hycanthone (Sigma), Paclitaxel (Sigma), or Doxorubicin hydrochloride (Sigma) at a concentration of 10 μM. The viability of the cells was evaluated 48 h after the treatment started as previously described with the Kit CellTiter Glo (Promega).

BC-3 cells = assay: Cell growth inhibition; type: cell-based, human; settings: 10 μM, D0 to D3, versus BC3 cells cultured in standard conditions
Procedure: Cell growth was measured every day from the day of treatment (DO) until 3 days after the treatment started (D3).
BC-3 cells were grown in RPMI-1640 GlutaMAX (Gibco) supplemented with 10% fetal bovine serum and antibiotics (amikacine and vancomycine) during 3 days. The number of cells per milliliter is measured at baseline, DO, D2 and D3. BC-3 were cultured with and without primaquine and Hycanthone.

[3] = test system: phosphorylation of IκB (NF-κB pathway) in BC-3 PEL cell line; assay: IκB phosphorylation, western blot; type: cell-based, human; settings: 10 μM, pre-treated for 6 and 12 h, BC-3 cells
Procedure: BC-3 cells were pre-treated for 6 h (A) and 12 h (B) with primaquine and hycanthone at 10 μM. DDTC was used as positive control. Whole-cell lysates were prepared as described in Materials and Methods of example F and used for p-IκB western blot analysis by using the appropriate antibodies. […] Treatment of BC-3 cells with DDTC (diethyldithiocarbamate) was carried out in the same conditions and served as a positive control.
BC-3, an HHV-8 positive lymphoblastic cell line (ATCC CRL-2277) and RAMOS, an human Burkitt's lymphoma cell line (ATCC CRL-1596), were routinely maintained in RPMI 1640 medium supplemented with 10% fetal heat-inactivated bovine serum (FBS), and antibiotics (Sigma Chemical Co., St. Louis, Mo.) in a 5% CO2 incubator at 37° C. To prepare whole cell extracts, the cells were washed with cold phosphate-buffered saline twice and lysed in lysis RIPA buffer containing 10 mM Tris-HCl, pH 8.0, 140 mM NaCl, 1% Triton X-100, 1 mM EDTA, 0.5 mM EGTA, 0.1% sodium deoxycholate, 0.1% SDS, supplemented with protease inhibitor mixture (1 mM PMSF, 10 mM β-glycerophosphate, 10 mM NaF, 1 mM sodium orthovanadate, 1 mM sodium pyrophosphate), (ThermoFisher Scientific) at 4° C. for 30 min. […] The supernatants were collected as whole cell extracts, and protein concentration was determined by the Lowry method. […]

[4] = test system: BC-3 cells (HHV8 infected PEL cell line); assay: Cell viability (ATP quantitation, CellTiter Glo) of HHV8-infected cells; type: cell-based, human; settings: 10 μM, 48 h, HHV8 infected BC-3 cells
Procedure: as §1, §2
• BC-3: cell line established from pleural effusion from a human immunodeficiency virus (HIV) negative patient diagnosed with primary effusion lymphoma (PEL). […]
as §3

BC-3 xenograft (PEL) = assay: Primary Effusion Lymphoma xenograft model in immunodeficient NOD/SCID mice; type: in vivo
Procedure: (§4) Primaquine efficacy was evaluated using a mice model of immunodeficient NOD/SCID mice. […] Mice weight was measured at various times (D6, D13, D20 and D24) after the treatment started.
Note the large growth tumor in the abdomen of the mouse that received BC-3 xenograft (“BC-3”) but not treated by primaquine.
At baseline, mice are inoculated with a PEL cell line (BC-3) by intraperitoneal (i.p) injection. One day after injection of BC-3 cells, Primaquine is administered by intraperitoneal injection, and then 3 times a week during 8 weeks. Tumoral burden is evaluated by the measure of weight every weeks (References: T. Matsuno, 2012: Diethyldithiocarbamate induces apoptosis in HHV-8-infected primary effusion lymphoma cells via inhibition of the NF-κB pathway; K. A. Sarosiek, 2010: Efficacy of bortezomib in a direct xenograft model of primary effusion lymphoma; W. Wu, 2005: Inhibition of HHV-8/KSHV infected primary effusion lymphomas in NOD/SCID mice by azidothymidine and interferon).
The experiment was conducted on 24 NOD/SCID mice (4 groups of 6 mice) (Charles River laboratories): 1 group (Mock) without xenograft (no BC-3) and non-treated (no Primaquine), 1 group with xenograft (BC-3) and non-treated (no Primaquine), 1 group with xenograft (BC-3) and treated (Primaquine 12.5 mg/kg; (Sigma), 1 group without xenograft and treated (Primaquine 12.5 mg/kg; (Sigma). […]

[5] = Toxicity of Primaquine in NOD/SCID mice; type: in vivo; settings: 12.5 mg/kg, after 24 days of treatment
Procedure: as §4
The experiment was conducted on 24 NOD/SCID mice (4 groups of 6 mice) (Charles River laboratories): 1 group (Mock) without xenograft (no BC-3) and non-treated (no Primaquine), 1 group with xenograft (BC-3) and non-treated (no Primaquine), 1 group with xenograft (BC-3) and treated (Primaquine 12.5 mg/kg; (Sigma), 1 group without xenograft and treated (Primaquine 12.5 mg/kg; (Sigma).
At the beginning of the experiments, the mice were 6 weeks old according to previous experiments conducted and available in the literature. Animals had 7 to 10 days of acclimatization before experiment. At baseline, 20.10^6 of BC3 cells in 500 μL of PBS were injected by i.p. in order to induce the development of PEL. Tumor growth is correlated with the total gain of weight. The consequent gain of weight should not exceed 150% of the baseline weight. For the group of mice […] by Primaquine, each mice received 1 i.p injection of 500 μL of PBS instead of BC-3 cells in order to evaluate the toxicity of Primaquine in mice.

Row | SMILES | apoptosis (caspases 3/7 activation) versus non-treated control [1] | toxicity (cell death) in other cell types non infected by HHV8 [2] [%] | cellular growth of BC3 (BC-3 cells) | phosphorylation of IκB [3] | cell death in BC-3 cells [4] | reduction of the median gain of weight (BC-3 xenograft (PEL); 12.5 mg/kg i.p. 3 times a week, D24, versus untreated mice with BC-3 xenograft) [%] | growth tumor in the abdomen (BC-3 xenograft (PEL); 12.5 mg/kg, after 24 days of treatment, picture versus untreated BC-3 mouse) | toxicity in mice [5]
1 | CCN(CC)C(=S)S [DDTC, Diethyldithiocarbamate] | 4 times | – | – | – | – | – | – | –
2 | CCN(CC)CCNc1ccc(CO)c2sc3ccccc3c(=O)c12 [Hycanthone] | at least as equivalent of that induced by DDTC | < 20 | inhibited cellular growth | dramatically reduced | – | – | – | –
3 | CC(=O)O[C@H]1C(=O)[C@@]2(C)[C@H]([C@H](OC(=O)c3ccccc3)[C@]3(O)C[C@H](OC(=O)[C@H](O)[C@@H](NC(=O)c4ccccc4)c4ccccc4)C(C)=C1C3(C)C)[C@]1(OC(C)=O)CO[C@@H]1C[C@@H]2O [Paclitaxel] | – | > 20 | – | – | induced cell death | – | – | –
4 | COc1cc(NC(C)CCCN)c2ncccc2c1 (stereo not drawn) [Primaquine diphosphate, Primaquine] | at least as equivalent of that induced by DDTC | – | inhibited cellular growth | dramatically reduced | – | 39.4 | reduced growth tumor | did not show any toxicity
5 | COc1cccc2c1C(=O)c1c(O)c3c(c(O)c1C2=O)C[C@@](O)(C(=O)CO)C[C@@H]3O[C@H]1C[C@H](N)[C@H](O)[C@H](C)O1 [doxorubicin, Doxorubicin hydrochloride] | – | > 20 | – | – | induced cell death | – | – | –
